“Also recorded” adds a separate entry of the source. Like-named read-outs stand apart in the source and are kept apart here.
Columns and labels:
[1] = tested on: normal human PBMC lymphocytes; experiment: Human PBMC lymphocyte viability by actual cell counts (hemacytometer; Tables 8A, 8B, FIG. 9); assay type: cell-based; conditions: for survival / proliferation of normal PBMC lymphocytes: low concentrations, Tables 8
Description: (§1) FIGS. 9A & 9B show effects of panaxytriol and Compound D, respectively, in varying doses at 24 (▪), 72 (●), and 120 (▴) hours on human PBMC lymphocyte survival based on actual cell counts. In both cases, lower amounts of the compounds increase cell proliferation. […] Cell counts in controls without active agent were: at 24 hrs: 75.4%; at 72 hrs: 93.0%; and at 120 hrs: 85.7%. FIG. 9 parallel the experiments in FIG. 8 but used a different method to determine cell survival; the method used in FIG. 9 was actual cell counting using a hemocytometer and microscope.
(§2) The effects of panaxytriol and Compound D on the viability of normal human PBMC lymphocytes shown in Tables 8A and 8B were determined using hemacytometer/microscope determinations. PBMC cells were obtained fresh from the New York Blood Center, New York, N.Y. 10021 (Dr. S. B. Jiang). Cell counts were performed in duplicate for 0, 0.1, 0.3, 1.0, 3.0, and 10.0 μM of each compound at the end of 24 hr, 72 hr, and 120 hr incubations. Incubation was carried out in RPMI 1640 medium (GIBCO/BRL) with 10% heat inactivated fetal bovine serum. […] Acad. Sci. USA 98: 8113-8118, 2001.

[2] = as above; assay type: cell-based; conditions: human
Description: as §1, §2

human PMBC lymphocytes = experiment: Time course of effects on proliferation of human lymphocytes (XTT and CCK-8; Table 6); assay type: cell-based; conditions: Lymphocyte, read-out: Dm
Method: Absorbance was measured by Powerwave a XS microplate spectrophotometer.
The effect of compounds of the invention on the proliferation of human lymphocytes at different time points are shown in Table 6 as results of XTT and CCK-8 tetrazolium assays following 24-hour, 72-hour, and 120-hour incubation. […] Cultured human PMBC lymphocytes were used in the assay. The procedures employed are taught in the General Biological Methods section.

[3] = tested on: CCRF-CEM/VBL100 vinblastine-resistant cells; experiment: In vitro cytotoxicity against vinblastine-resistant CCRF-CEM subline; assay type: cell-based, human; conditions: for IC50: Homo sapiens, CCRF-CEM, 72 h; for fold of cross-resistance (CCRF-CEM/Vinblastine vs parent cell line): Table 3D, given as x or -fold
[4] = tested on: CCRF-CEM human T-cell acute lymphoblastic leukemia cells; experiment: In vitro cytotoxicity against CCRF-CEM (XTT / CCK-8 tetrazolium assay, 72 hr); conditions: for IC50: Homo sapiens
[5] = tested on: human mammary carcinoma MX-1 xenograft; experiment: Therapeutic effect and body weight in nude mice bearing MX-1 xenograft, single agents; conditions: for antitumor effects against MX-1 xenografts: mouse, in vivo; for body weight decrease upon treatment: up to the highest dosage levels (100 mg/kg)
Method: FIGS. 1A and 1B show the therapeutic, anti-cancer effects of various dosage regimens of panaxytriol and Compound (A), respectively, given by i.v. injection in nude mice bearing human mammary carcinoma MX-1 xenograft tumors, which is an in vivo model for breast cancer. […] The compounds were administered starting on day 8.
An in vivo assay uses male athymic nude mice bearing the nu/nu gene (6 weeks of age or older, weighing between 20 and 22 g, obtainable from NCl, Frederick, Md.) into which one or more human tumor xenografts are been implanted.
Nude mice having human mammary carcinoma xenograft MX-1 were treated with panaxytriol or Compound (A) at various dosages through the slow i.v. infusion protocol by Chou et al. (Chou, T. C., et al, Proc. Natl. Acad. Sci. U.S.A. 95: 15798 (1998), the contents of which are herein incorporated by reference in their entirety).

[6] = read-out: IC50 CCRF-CEM/Vinblastine
[7] = CCRF-CEM, 72 h, read-out: CCRF-CEM (IC50 in μM), Table 3A-2, CCK-8, 72-hr exposure
[8] = CCRF-CEM, 72 h, read-out: IC50 CCRF-CEM, Table 3D, CCK-8, 72-hr incubation

## C=C[C@@H](O)C#CC#CC[C@@H](O)[C@H](O)CCCCCCC [panaxytriol]
[1]; FIGS. 9A, 9B
  time of maximal activation (cell counts): 24 h
[1]
  survival / proliferation of normal PBMC lymphocytes: increased the survival; also recorded: increases the proliferation and prolongs the life-span of normal lymphocytes
[2]; 0.1 μM, 24-hrs, read-out: viable cells relative to the starting point (control)
  viability at 24 h, 0.1 µM: 121%
[2]; 0.1 μM, 72-hrs, read-out: viable cells relative to the starting point (control)
  viability at 72 h, 0.1 µM: 113%
[2]; 0.1 μM, 120-hrs, read-out: viable cells relative to the starting point (control)
  viability at 120 h, 0.1 µM: 110%
[2]; 0.3 μM, 24-hrs, read-out: viable cells relative to the starting point (control)
  viability at 24 h, 0.3 µM: 140%
[2]; 0.3 μM, 72-hrs, read-out: viable cells relative to the starting point (control)
  viability at 72 h, 0.3 µM: 95.8%
[2]; 0.3 μM, 120-hrs, read-out: viable cells relative to the starting point (control)
  viability at 120 h, 0.3 µM: 105%
[2]; 1.0 μM, 24-hrs, read-out: viable cells relative to the starting point (control)
  viability at 24 h, 1 µM: 123%
[2]; 1.0 μM, 72-hrs, read-out: viable cells relative to the starting point (control)
  viability at 72 h, 1 µM: 102%
[2]; 1.0 μM, 120-hrs, read-out: viable cells relative to the starting point (control)
  viability at 120 h, 1 µM: 101%
[2]; 3.0 μM, 24-hrs, read-out: viable cells relative to the starting point (control)
  viability at 24 h, 3 µM: 104%
[2]; 3.0 μM, 72-hrs, read-out: viable cells relative to the starting point (control)
  viability at 72 h, 3 µM: 82.2%
[2]; 3.0 μM, 120-hrs, read-out: viable cells relative to the starting point (control)
  viability at 120 h, 3 µM: 74.1%
[2]; 10.0 μM, 24-hrs, read-out: viable cells relative to the starting point (control)
  viability at 24 h, 10 µM: 27.7%
[2]; 10.0 μM, 72-hrs, read-out: viable cells relative to the starting point (control)
  viability at 72 h, 10 µM: 28.5%
[2]; 10.0 μM, 120-hrs, read-out: viable cells relative to the starting point (control)
  viability at 120 h, 10 µM: 35.5%
Human PMBC lymphocytes; 24 hr incubation
  EC50: 1.64 µM
Human PMBC lymphocytes; 72 hr incubation
  EC50: 3.48 µM
Human PMBC lymphocytes; 120 hr incubation
  EC50: 3.17 µM
[3]; read-out: CCRF-CEM/VBL (IC50 in μM)
  IC50: 4.43 µM
[3]; read-out: IC50 CCRF ± CEM/VBL
  IC50: 14.6 ± 6.92 µM
[3]; [6]
  IC50: 6.39 µM
[3]; Table 3
  fold resistance in brackets (IC50 CCRF-CEM/VBL vs CCRF-CEM): 1.20 x
[3]; Table 3A-2
  Fold of resistance (IC50 ratio CCRF-CEM/VBL vs CCRF-CEM): 1.20 fold
[3]
  fold of cross-resistance (CCRF-CEM/Vinblastine vs parent cell line): 1.27 fold
[4]; [7]
  IC50: 3.68 µM
[4]; CCRF-CEM, 72 h, read-out: IC50 CCRF-CEM, Table 3, XTT, 72-hour
  IC50: 12.1 ± 1.57 µM
[4]; [8]
  IC50: 5.04 ± 0.86 µM
[5]; 30 mg/kg
  suppression of tumor growth: some suppression of tumor growth
[5]; Day 24, i.v. injection Q2D, escalating doses from day 8, FIGS. 1A, 1B
  tumor suppression compared to the control tumor size: 52.3%
[5]; FIGS. 1C, 1D, i.v. injections up to 100 mg/kg
  evidence of toxicity (body weight): no evidence
[5]; Q2D i.v. injection 50-100 mg/kg of multiple doses (FIG. 1A)
  MX-1 xenograft tumor growth suppressed by: 53%
[5]
  antitumor effects against MX-1 xenografts: antitumor effects
  body weight decrease upon treatment: no body weight decrease
[5]; listed as Panaxytriol
  body weight decrease upon treatment: without a drop in body-weight

## C=C[C@H](O)C#CC#CC[C@H]1OC(C)(C)O[C@@H]1CCCCCCC [Compound (D)]
[1]; human
  high concentrations increasing cell death: 3 to 10 µM
[1]
  survival / proliferation of normal PBMC lymphocytes: increased the survival
[2]
  viability at 24 h, 0.1 µM: 101%
  viability at 24 h, 0.3 µM: 118%
  viability at 24 h, 1 µM: 78.4%
  viability at 24 h, 3 µM: 90.5%
  viability at 24 h, 10 µM: 7.5%
  viability at 72 h, 0.1 µM: 116%
  viability at 72 h, 0.3 µM: 108%
  viability at 72 h, 1 µM: 89.7%
  viability at 72 h, 3 µM: 66.8%
  viability at 72 h, 10 µM: 33.2%
  viability at 120 h, 0.1 µM: 78.2%
  viability at 120 h, 0.3 µM: 73.6%
  viability at 120 h, 1 µM: 102%
  viability at 120 h, 3 µM: 68%
  viability at 120 h, 10 µM: 27.4%
Human PMBC lymphocytes; 24 hr incubation
  EC50: 1.07 µM
Human PMBC lymphocytes; 72 hr incubation
  EC50: 1.52 µM
Human PMBC lymphocytes; 120 hr incubation
  EC50: 1.76 µM
[3]; Table 3A-2, CCK-8, 72-hr exposure, read-out: CCRF-CEM/VBL (IC50 in μM)
  IC50: 2.55 µM
[3]; [6]
  IC50: 0.947 µM
[3]; TAXOL- or vinblastine-resistant (MDR) sublines
  cross-resistance to TAXOL or vinblastine: do not appear to be cross-resistant to TAXOL or vinblastine
[3]; Table 3A-2
  Fold of resistance (IC50 ratio CCRF-CEM/VBL vs CCRF-CEM): 2.24 fold
[3]; Table 3A, CCRF-CEM/VBL
  analog is fold more potent (than Compound (A)): (analog is 1.19-fold
[3]
  fold of cross-resistance (CCRF-CEM/Vinblastine vs parent cell line): 1.98 fold
[4]
  anti-cancer activity in the in vitro cytotoxicity assay: active against cancer
[4]; [7]
  IC50: 1.14 µM
[4]; [8]
  IC50: 0.478 µM
[4]; CCRF-CEM, read-out: IC50 (in μM), cytotoxic potency against cancer cell line growth in vitro, Table 3C, cell line not given
  IC50: 0.48 µM
[4]; Table 3A
  potency relative to Compound (A) in vitro: about 1.44 fold
[4]; Table 3A, CCRF-CEM
  analog is fold more potent (than Compound (A)): is 1.68-fold
[5]; 10 mg/kg i.v. Q4D×4
  MX-1 xenograft suppressed by the compound by itself: 10%
[5]; 15 mg/kg Q2D×1, 40 mg/kg Q2D×4
  MX-1 xenograft inhibited: 38.3%
[5]; MX-1 xenografts
  effectiveness compared with panaxytriol: more effective at lower doses than panaxytriol
[5]
  antitumor effects against MX-1 xenografts: antitumor effects

Reference: patent publication US8859615B2, “Compounds, compositions and methods for reducing toxicity and treating or preventing diseases” (priority 2008, dated 2014)
